Patent publication US12029751B2, “Therapeutic agent for nervous system disease” (OSAKA UNIVERSITY, priority 2017, dated 2024)

Tests used:
[1] = system: Akt-mTOR pathway; assay: Western blot of Akt, 4EBP1 and S6K phosphorylation (mechanism of macrophage induction); type: cell-based, mouse; details: 30 minutes
Method: The J774A.1 cells (Example 5-1) were seeded on a dish having a diameter of 6 cm. After 4 days, proteins were collected using a cell lysis buffer containing a cocktail of protease inhibitors. The protein concentration was measured by BCA assay. Then, 50 μg of each sample was subjected to SDS-PAGE, and the electrophoresed proteins were transferred to a polyvinylidene difluoride membrane. The membrane was blocked with a blocking buffer for 1 hour, and then the proteins were allowed to react with primary antibodies at 4° C. overnight. The proteins were further allowed to react with a secondary antibody at room temperature for 1 hour and detected using ECL Western Blotting Detection System. To detect the M1 markers iNOS and IL-1β, lipopolysaccharide (LPS) (100 ng/ml) and methylcobalamin were added at 24 hours before collecting the proteins. To detect the M2 markers Arg1 and CD206, IL-4 (20 ng/ml) and methylcobalamin were added at 72 hours before collecting the proteins.
The mechanism of the macrophage induction (Example 5) by methylcobalamin was analyzed. Specifically, the analysis was carried out as follows. At 30 minutes after IL-4 and methylcobalamin (100 nM and 1 mM) were added, activation of Akt, 4EBP1, and S6K in the Akt-mTOR pathway (one of the major signaling pathways that induce M2 gene expression) was evaluated by Western blot. In the pathway, Akt phosphorylation occurs in response to an upstream signal, and 4EBP1 phosphorylation and S6K phosphorylation further occur through mTORC1 in the downstream. The S6K phosphorylation provides a negative feedback to the upstream of the signaling pathway. Western blot was performed as in Example 5-2, except that IL-4 (20 ng/ml), methylcobalamin, and RAD001 (200 nM) were added at 30 minutes before the proteins were collected, and the primary antibodies for detection were changed.

[2] = system: cerebral cortical neurons; assay: TUNEL assay, apoptosis inhibiting effect on cerebral cortical neurons; type: cell-based, rat; details: after 18 hours
Source text: Cerebral cortical neurons were collected and cultured by a conventional method. Cerebral cortex was dissected from a fetus of a Sprague-Dawley (SD) rat (18th day of pregnancy) and recovered in ice-cooled Dulbecco's Modified Eagle Medium (DMEM) containing 10% fetal bovine serum (FBS) and 1% penicillin/streptomycin. The pia mater and blood vessels were removed, and the remaining cerebral cortex was transferred to DMEM (containing 1% penicillin/streptomycin and no FBS) and cut into small pieces having a size of 1 mm by surgical scissors. Papain (final concentration, 2 mg/ml) was added to the cell mixture, and the mixture was allowed to react at 37° C. for 30 minutes. DNase I (70 U/ml) was added to the reaction mixture and reaction was carried out for 30 seconds. Then, DMEM containing 10% FBS and 1% penicillin/streptomycin was added to terminate the reaction. The cell mixture was centrifuged at 800 rpm, the residue was re-suspended in DMEM containing 10% FBS and 1% penicillin/streptomycin, and the suspension was seeded on a dish coated with poly-L lysine (PLL). At 4 hours after the cell seeding, the medium was replaced with Neurobasal medium (containing 10% B27 supplement and 1% penicillin/streptomycin).
To the cerebral cortical neurons (Example 1-1) cultured on a PLL-coated 8-well chamber slide, 20 mM glutamic acid and […] methylcobalamin (MeCbl) were added. After 18 hours, the proportion of apoptotic cells was evaluated using Promega's DeadEnd Fluorometric TUNEL System. Cells were fixed with 4% paraformaldehyde (PFA) at 4° C. for 25 minutes. After cells were permeabilized with 0.2% Triton X-100 for 5 minutes, an incubation buffer was added, and the mixture was left stand at 37° C. with light shielding for 60 minutes to label the permeabilized cells. The nuclei were labeled with 4′6-diamidino-2-phenylindole (DAPI). The total cell number and the number of TUNEL-positive cells were determined.

[3] = IL-4 20 ng/ml + MeCbl 100 nM, listed as methylcobalamin
[4] = IL-4 20 ng/ml + MeCbl 1 mM + RAD001 (200 nM)
[5] = IL-4 20 ng/ml + MeCbl 1 mM, listed as methylcobalamin

C/C1=C2/[N-][C@H]([C@H](CC(N)=O)[C@@]2(C)CCC(=O)NC[C@@H](C)OP(=O)([O-])O[C@H]2[C@@H](O)[C@@H](n3cnc4cc(C)c(C)cc43)O[C@@H]2CO)[C@]2(C)N=C(/C(C)=C3N=C(/C=C4N=C1[C@@H](CCC(N)=O)C\4(C)C)[C@@H](CCC(N)=O)[C@]\3(C)CC(N)=O)[C@@H](CCC(N)=O)[C@]2(C)CC(N)=O.[CH3-].[Co+3] [MeCbl, methylcobalamin] was tested. Which p-4EBP1/4EBP1 ([1]; IL-4 20 ng/ml + MeCbl 100 nM) did it give?
Its p-4EBP1/4EBP1 is 4.94.

And the p-Akt/Akt ([1]; IL-4 20 ng/ml + MeCbl 100 nM)?
Its p-Akt/Akt is 3.58.

What about the p-S6K/S6K ([1]; IL-4 20 ng/ml + MeCbl 100 nM) of the same compound?
Its p-S6K/S6K is 2.65.

And the p-4EBP1/4EBP1 [1, 3]?
The p-4EBP1/4EBP1 was “enhanced”.

What about the p-S6K/S6K [1, 3] of the same compound?
Its p-S6K/S6K is “enhanced”.

And the p-4EBP1/4EBP1 [1, 4]?
Its p-4EBP1/4EBP1 is 2.78.

And the p-Akt/Akt [1, 4]?
The p-Akt/Akt was 3.78.

And the p-S6K/S6K [1, 4]?
Its p-S6K/S6K is 0.33.

And the p-4EBP1/4EBP1 ([1]; IL-4 20 ng/ml + MeCbl 1 mM)?
The p-4EBP1/4EBP1 was 6.08.

What about the p-Akt/Akt ([1]; IL-4 20 ng/ml + MeCbl 1 mM) of the same compound?
Its p-Akt/Akt is 2.59.

What about the p-S6K/S6K ([1]; IL-4 20 ng/ml + MeCbl 1 mM) of the same compound?
The p-S6K/S6K was 3.12.

And the p-4EBP1/4EBP1 [1, 5]?
Its p-4EBP1/4EBP1 is “activated”.

What about the p-Akt/Akt [1, 5] of the same compound?
Its p-Akt/Akt is “decreased”.

And the p-S6K/S6K [1, 5]?
The p-S6K/S6K was “activated”.

And the “proportion of apoptotic cells” value ([2]; 20 mM glutamic acid + methylcobalamin)?
Its value is 5.6%.

What about the “proportion of apoptotic cells” value ([2]; 20 mM glutamic acid + methylcobalamin, listed as methylcobalamin) of the same compound?
Its value is “significantly decreased to the level of the control”.

What about the “proportion of apoptotic cells” value ([2]; MeCbl alone (Glutamate −), methylcobalamin) of the same compound?
Its value is 5.9%.
